Here are results for 16 compounds from patent US7569547B2, “Inhibiting furin with polybasic peptides” (Board of Supervisors of Louisiana State University and …, priority 2001, dated 2009).

One may read the Ki as a dissociation constant, usually derived from enzyme kinetics or from competition with a known ligand.

Non-standard residues stand in square brackets, D forms with d. Residues, ends and D or L forms follow the SMILES beside them.

Assay type in all cases: biochemical
Assay [1] has as its target T1, PC2 (Mus musculus, UniProt P21661).
T1 sequence (P21661 109-637): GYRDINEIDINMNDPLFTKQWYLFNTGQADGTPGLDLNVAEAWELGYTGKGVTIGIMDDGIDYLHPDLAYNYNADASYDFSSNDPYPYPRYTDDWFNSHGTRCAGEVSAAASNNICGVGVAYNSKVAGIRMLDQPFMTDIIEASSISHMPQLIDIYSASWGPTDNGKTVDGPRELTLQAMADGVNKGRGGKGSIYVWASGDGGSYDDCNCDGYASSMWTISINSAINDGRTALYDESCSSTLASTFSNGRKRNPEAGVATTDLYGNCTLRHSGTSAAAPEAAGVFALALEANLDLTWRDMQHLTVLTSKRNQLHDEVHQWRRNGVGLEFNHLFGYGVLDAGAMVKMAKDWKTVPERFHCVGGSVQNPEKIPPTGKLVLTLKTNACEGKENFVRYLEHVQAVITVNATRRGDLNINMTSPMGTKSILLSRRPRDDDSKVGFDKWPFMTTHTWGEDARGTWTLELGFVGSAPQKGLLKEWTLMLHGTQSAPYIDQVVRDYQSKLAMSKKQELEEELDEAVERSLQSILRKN
The assay is described as follows: PC2 enzyme assay, hydrolysis of pERTKR-MCA at pH 5.0. The arrangement: made in house. The protocol: (§1) The proprotein convertases PC1 and PC2 were prepared by ion exchange chromatography as described in G. Frenette et al., Biochim. Biophys. Acta., vol. 1334, pp. 109-115 (1997).
(§2) Enzyme Assays and Hexapeptide Library Screening. Enzyme assays for PC1 and PC2 were performed at pH 5.0 using pERTKR-MCA (Peptides International Inc., Louisville, Ky.) as described in E. Apletalina et al., J. Biol. Chem., vol. 273, pp. 26589-26595 (1998). The assay for furin was performed using the same substrate at pH 7.0 in 100 mM HEPES, 5 mM CaCl2, 0.1% Brij 35. All assays were performed at 37° C. in a 96 well fluorometer (Labsystems) at an excitation wavelength of 380 nm with emission monitored at a wavelength of 460 nm. The total volume was 50 μL. Unless otherwise stated, the final substrate concentration for all assays was 200 μM. When used in a particular experiment, the inhibitory peptides were pre-incubated with enzyme for 30 min at room temperature prior to addition of substrate. All assays were performed in duplicate or triplicate.

Assay [2] deals with T2, recombinant mouse furin (Mus musculus, UniProt P23188).
T2 construct: truncated N-terminally to the transmembrane domain at His^711 using PCR; myc (C, cleaved yes); hexa-His (C, cleaved yes); made in house; host or cells: DG44 CHO cells, conditioned medium
The assay is described as follows: Furin enzyme assay, hydrolysis of pERTKR-MCA at pH 7.0. Particulars: for type of inhibition of furin (Lineweaver-Burk plots): furin 30 nM, 0, 20 or 40 μM hexapeptide, polyarginines forty-fold lower.
Text: Recombinant convertase preparation. The mouse furin clone was a kind gift from K. Nakayama (Fukuoka University School of Medicine, Fukuoka, Japan). The mouse furin cDNA was truncated N-terminally to the transmembrane domain at His^711 using PCR. This PCR product was then subcloned into pcDNA3.1 (−) myc-His (Invitrogen) at the Nhe1 and Xba1 restriction sites. Dihydrofolate-reductase-negative DG44 Chinese Hamster Ovary (CHO) cells (L. Chasin, Columbia University, New York, N.Y.) were transfected using Lipofectin (Life Technologies), and colonies were selected at 37° C. in 5% CO2 in α-MEM (lacking nucleosides) containing 10% well-dialyzed fetal bovine serum (Life Technologies). Conditioned media from colonies were screened using an enzyme assay (see below), and a high-expressing clone was selected. Overexpression of furin was achieved by increasing the methotrexate concentration from 5 nM to 50 μM in five- to ten-fold steps as described in I. Lindberg et al., Methods Neurosci., vol. 23, pp. 94-108 (1995). The amplified lines were tested for increased furin expression by enzyme assay. Once the 50 μM methotrexate level had been reached, cells were split at ratios of 1:6 twice a week. 100 mL of conditioned media (OptiMEM, Life Technologies) containing 100 μg/mL aprotinin (Miles Laboratories, Kankakee, Ill.) was collected from confluent roller bottles every 24 h. The medium was then centrifuged at low speed to remove cells, and the supernatant was stored at −80° C. until use.
Purification of furin: Conditioned medium was thawed, pooled, and diluted 1:3.5 with buffer A (20 mM HEPES, 0.1% Brij 35, 5 mM CaCl2, pH 7.4), and pumped at 40 mL/min through a Sartorius D100 anion exchange membrane. The membrane was washed with 40 mL of buffer A, followed by 40 mL of buffer A containing 50 mM NaCl, and finally by 40 mL of buffer A containing 200 mM NaCl. The fraction eluting with 200 mM NaCl was diluted 1:4 with buffer A and applied to a 1 mL Pharmacia Mono Q HR5/5 anion exchange column at a flow rate of 1 mL/min. Following a 10 mL wash with buffer A, furin was eluted by a linear increase of 0 to 500 mM NaCl in buffer A over 30 mL; and 2 mL fractions were collected. Fractions containing peak activity were pooled, and 200 μL aliquots were subjected to gel permeation chromatography using a Pharmacia Superose 12 column at a flow rate of 0.5 mL/min of buffer A containing 200 mM NaCl. Fractions were assayed for activity as described below; protein content was determined using the Bradford method. All purification steps were performed at 4° C.
as §2

The target of assay [3] is T3, PACE4 (Rattus norvegicus, UniProt Q63415).
T3 construct: made in house; host or cells: stably transfected hEK-293 cells (gift of R. E. Mains), conditioned medium
T3 sequence (Q63415 133-937): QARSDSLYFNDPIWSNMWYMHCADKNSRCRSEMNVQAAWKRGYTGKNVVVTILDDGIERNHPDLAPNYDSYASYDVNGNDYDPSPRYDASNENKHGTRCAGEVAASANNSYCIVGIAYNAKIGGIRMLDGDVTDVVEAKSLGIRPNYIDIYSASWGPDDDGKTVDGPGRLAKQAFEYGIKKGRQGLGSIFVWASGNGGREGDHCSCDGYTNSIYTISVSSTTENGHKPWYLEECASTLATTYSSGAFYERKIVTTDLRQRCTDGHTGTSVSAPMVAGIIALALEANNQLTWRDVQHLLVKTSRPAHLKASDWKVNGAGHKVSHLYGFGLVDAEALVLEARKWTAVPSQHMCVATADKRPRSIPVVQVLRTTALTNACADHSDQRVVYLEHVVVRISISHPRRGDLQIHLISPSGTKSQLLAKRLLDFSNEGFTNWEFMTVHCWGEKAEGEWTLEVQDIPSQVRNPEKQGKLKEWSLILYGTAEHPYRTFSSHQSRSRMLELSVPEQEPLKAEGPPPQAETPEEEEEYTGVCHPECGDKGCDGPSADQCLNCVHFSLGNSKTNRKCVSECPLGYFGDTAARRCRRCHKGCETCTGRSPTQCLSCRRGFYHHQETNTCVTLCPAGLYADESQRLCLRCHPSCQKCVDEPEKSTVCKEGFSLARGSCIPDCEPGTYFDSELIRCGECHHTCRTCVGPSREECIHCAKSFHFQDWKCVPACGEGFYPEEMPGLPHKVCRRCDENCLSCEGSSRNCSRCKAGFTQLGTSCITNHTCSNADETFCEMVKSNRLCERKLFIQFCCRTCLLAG
The assay is described as follows: PACE4 enzyme assay, hydrolysis of pERTKR-MCA. The protocol:
The proprotein convertase PACE4 was partially purified from an overnight-conditioned medium of stably transfected hEK-293 human embryonic kidney cells (a generous gift of R. E. Mains, Johns Hopkins University School of Medicine, Baltimore, Md.). Briefly, 100 mL of conditioned medium (OptiMEM containing 100 μg/mL aprotinin) was loaded onto an Econo-Pac Q (Bio-Rad) column at 4 mL/min, washed with 10 mL of buffer A, and then eluted with a linear gradient of buffer A containing 500 mM NaCl over 50 mL. The active fractions were then diluted 1:4 with buffer A prior to loading onto a Mono Q column (Pharmacia) at 1 mL/min. The PACE4 was eluted with a linear gradient of buffer A containing 500 mM NaCl over 10 mL. The resulting active fractions were then pooled and stored at −80° C. until use.
as §2

Assay [4] has as its target T4, PC1 (Mus musculus, UniProt P63239).
T4 construct: made in house
T4 sequence (P63239 111-753): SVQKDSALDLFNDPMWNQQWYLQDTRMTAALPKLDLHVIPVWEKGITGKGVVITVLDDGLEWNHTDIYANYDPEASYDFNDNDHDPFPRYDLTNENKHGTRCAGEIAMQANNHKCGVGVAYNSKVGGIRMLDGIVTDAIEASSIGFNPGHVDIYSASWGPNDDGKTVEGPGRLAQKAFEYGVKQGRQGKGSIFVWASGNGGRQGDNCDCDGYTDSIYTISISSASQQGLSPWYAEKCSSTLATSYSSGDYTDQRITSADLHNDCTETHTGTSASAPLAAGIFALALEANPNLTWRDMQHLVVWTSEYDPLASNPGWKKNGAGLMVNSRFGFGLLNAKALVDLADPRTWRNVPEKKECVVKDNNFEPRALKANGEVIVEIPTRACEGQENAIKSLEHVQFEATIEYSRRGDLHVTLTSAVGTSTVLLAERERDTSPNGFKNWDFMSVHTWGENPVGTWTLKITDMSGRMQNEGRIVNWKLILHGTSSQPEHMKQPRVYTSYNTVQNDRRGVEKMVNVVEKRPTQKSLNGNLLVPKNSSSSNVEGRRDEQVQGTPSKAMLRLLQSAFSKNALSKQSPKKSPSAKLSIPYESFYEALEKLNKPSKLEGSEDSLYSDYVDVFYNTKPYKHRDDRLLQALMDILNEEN
The assay is described as follows: biochemical. The protocol:
as §1, §2

T2 sequence (P23188 108-714 limits assumed): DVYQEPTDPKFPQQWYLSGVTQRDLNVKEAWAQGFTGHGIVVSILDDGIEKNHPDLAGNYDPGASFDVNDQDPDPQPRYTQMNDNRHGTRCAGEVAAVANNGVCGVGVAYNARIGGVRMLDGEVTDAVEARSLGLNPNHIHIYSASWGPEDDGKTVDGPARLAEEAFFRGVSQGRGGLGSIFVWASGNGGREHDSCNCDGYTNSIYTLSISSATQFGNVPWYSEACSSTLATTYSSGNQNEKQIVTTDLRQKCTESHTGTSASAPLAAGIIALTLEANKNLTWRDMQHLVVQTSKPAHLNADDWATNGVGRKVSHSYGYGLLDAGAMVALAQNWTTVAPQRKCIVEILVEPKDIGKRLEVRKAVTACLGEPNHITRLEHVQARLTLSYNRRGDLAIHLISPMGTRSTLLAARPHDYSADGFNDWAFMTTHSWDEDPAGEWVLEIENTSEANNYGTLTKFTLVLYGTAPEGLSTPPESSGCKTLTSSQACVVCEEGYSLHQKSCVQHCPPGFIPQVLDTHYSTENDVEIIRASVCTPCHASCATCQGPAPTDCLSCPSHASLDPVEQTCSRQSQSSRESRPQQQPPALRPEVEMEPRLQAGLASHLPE

Turning to `CC(=O)N[C@@H](CC(C)C)C(=O)N[C@@H](CC(C)C)C(=O)N[C@@H](CCCN=C(N)N)C(=O)N[C@H](C(=O)N[C@@H](CCCCN)C(=O)N[C@@H](CCCN=C(N)N)C(=O)O)C(C)C` [Ac-LLRVKR], the affinity in assay [1] corresponds to a Ki of 1.3 ± 0.6 µM.
As to `CC[C@@H](C)[C@@H](NC(=O)[C@@H](CCCNC(=N)N)NC(=O)[C@@H](CCCNC(=N)N)NC(=O)[C@@H](CCCNC(=N)N)NC(=O)[C@@H](Cc1c[nH]c2ccccc12)NC(C)=O)C(=O)N[C@H](CC(C)C)C(N)=O` [Ac-wrrril-NH2] (Ac-[dW][dR][dR][dR][dI][dL]-NH2), the values for the Ki in assay [1] and in assay [2] were 601 ± 200 µM and 22.7 ± 4.3 µM, respectively.
As for `CC[C@@H](C)[C@@H](NC(=O)[C@@H](CCCNC(=N)N)NC(=O)[C@@H](CCCNC(=N)N)NC(=O)[C@@H](CCCNC(=N)N)NC(=O)[C@@H](Cc1c[nH]c2ccccc12)NC(C)=O)C(=O)N[C@H](CCCNC(=N)N)C(N)=O` [Ac-wrrrir-NH2] (Ac-[dW][dR][dR][dR][dI][dR]-NH2), the values for the Ki in assay [1] and in assay [2] were 399 ± 75 µM and 7 ± 0.9 µM, respectively.
The like results for `CC(=O)N[C@H](Cc1c[nH]c2ccccc12)C(=O)N[C@H](CCCNC(=N)N)C(=O)N[C@H](CCCNC(=N)N)C(=O)N[C@H](CCCNC(=N)N)C(=O)N[C@H](CCCNC(=N)N)C(=O)N[C@H](CC(C)C)C(N)=O` [Ac-wrrrrl-NH2] (Ac-[dW][dR][dR][dR][dR][dL]-NH2) were, in that order, 203 ± 20 µM and 5.3 ± 1 µM.
Consider `CC(=O)N[C@H](Cc1c[nH]c2ccccc12)C(=O)N[C@H](CCCNC(=N)N)C(=O)N[C@H](CCCNC(=N)N)C(=O)N[C@H](CCCNC(=N)N)C(=O)N[C@H](CCCNC(=N)N)C(=O)N[C@H](CCCNC(=N)N)C(N)=O` [Ac-wrrrrr-NH2] (Ac-[dW][dR][dR][dR][dR][dR]-NH2), for which the affinity in assay [1], expressed as Ki, was 334 ± 37 µM. In assay [2], the Ki stood at 2.4 ± 0.8 µM and the “type of inhibition of furin (Lineweaver-Burk plots)” value was “strictly competitive-type inhibition”.
Turning to `N=C(N)NCCC[C@H](NC(=O)[C@H](CCCNC(=N)N)NC(=O)[C@H](CCCNC(=N)N)NC(=O)[C@H](CCCNC(=N)N)NC(=O)[C@H](CCCNC(=N)N)NC(=O)[C@H](CCCNC(=N)N)NC(=O)[C@@H](N)CCCNC(=N)N)C(=O)O` [Hepta-L-arginine], the Ki stood at 0.24 ± 0.045 µM in assay [3] and 5.2 ± 1.2 µM in assay [4].
Take `CC(C)C[C@H](NC(=O)[C@@H](N)CC(C)C)C(=O)N[C@@H](CCCNC(=N)N)C(=O)N[C@H](C(=O)N[C@@H](CCCCN)C(=O)N[C@@H](CCCNC(=N)N)C(N)=O)C(C)C` [LLRVKR-NH2]: in assay [1], the Ki was 2.3 ± 0.2 µM.
Compound `CC(C)C[C@H](NC(=O)[C@@H](N)CC(C)C)C(=O)N[C@@H](CCCNC(=N)N)C(=O)N[C@H](C(=O)N[C@@H](CCCCN)C(=O)N[C@@H](CCCNC(=N)N)C(=O)O)C(C)C` [LLRVKR] registered a Ki in assay [1] of 3.7 ± 0.17 µM. Moreover, in assay [2] (LLRVKR compared with acetylated and amidated form), the “increase of inhibitory potency against furin on removing the terminal amide and acetyl groups” value is “eight-fold”.
Consider Ac-HHKRRR-NH2 [Ac-HHKRRR-NH2], for which the affinity in assay [1] corresponds to a Ki of 235 ± 16 µM.
As for Ac-HRKRRR-NH2 [Ac-HRKRRR-NH2], the Ki in assay [1] turned out to be 309 ± 29 µM.
In the case of Ac-KHKRRR-NH2 [Ac-KHKRRR-NH2], the affinity in assay [1], expressed as Ki, was 280 ± 29 µM.
In turn, Ac-KRKRRR-NH2 [Ac-KRKRRR-NH2] registered a Ki in assay [1] of 391 ± 60 µM.
On the same count and under the same terms, next, Ac-MHKRRR-NH2 [Ac-MHKRRR-NH2]: 216 ± 13 µM; Ac-MRKRRR-NH2 [Ac-MRKRRR-NH2]: 1500 µM.
For Ac-RHKRRR-NH2 [Ac-RHKRRR-NH2], the Ki in assay [1] was found to be 152 ± 30 µM; in assay [2] it was 3.4 ± 0.6 µM.
Take Ac-RRKRRR-NH2 [Ac-RRKRRR-NH2]: in assay [1], affinity was put at a Ki of 461 ± 75 µM. For the same compound, the “type of inhibition of furin (Lineweaver-Burk plots)” value in assay [2] is reported as “strictly competitive-type inhibition”.
